From publication PMC9603750, “Chalcone-Acridine Hybrid Suppresses Melanoma Cell Progression via G2/M Cell Cycle Arrest, DNA Damage, Apoptosis, and Modulation of MAP Kinases Activity” (International Journal of Molecular Sciences, 2022) come the findings set out here.

The structures appear in SMILES notation.

One test concerns BLM melanoma cells. Nature of the test: Cell cycle analysis by flow cytometry (PI). The settings on record: 1C 20 μmol/L. The format is cell-based, human. The method, then:
(§1) The A2058 and BLM melanoma cells were seeded at a density of 1 × 10^5/dish in a Petri dish. Twenty-four hours after incubation, A2058 cells were treated with chalcone 1C at 10 μmol/L concentration, BLM cells at 20 μmol/L concentration and both melanoma cell lines were treated with DMSO as the negative control at the same concentrations. For flow cytometric analysis of the cell cycle, adherent and floating A2058 and BLM melanoma cells were harvested in three different times (24, 48 and 72 h) after treatment with chalcone 1C and DMSO, washed in cold washing buffer (PBS), fixed in cold 70% ethanol and stored at −20 °C at least overnight. Prior to analysis, cells were washed with PBS, resuspended in staining solution (Triton X-100 final concentration 0.1%, ribonuclease A final concentration 0.5 mg/mL and propidium iodide final concentration 0.025 mg/mL, all Sigma), and incubated for 30 min in the dark at room temperature. Stained melanoma cells were analysed using a BD FACSCalibur^TM Flow Cytometer (Becton Dickinson, San Jose, CA, USA). Three independent analyses were performed.
Background: In flow cytometry, cells or beads pass a laser one at a time.

In another test the test system is A2058 melanoma cells. Briefly: Cell cycle analysis by flow cytometry (PI). The format is cell-based, human. The settings on record: A2058, 1C 10 μmol/L. Here is the method: as §1

For the compound `COc1cccc(OC)c1C(=O)/C=C/c1c2ccccc2nc2ccccc12` [Compound 1C, (2E)-3-(acridin-9-yl)-1-(2,6-dimethoxyphenyl)prop-2-en-1-one], the G1 is on record as 19.35 ± 1.43 in the test with BLM melanoma cells (24 h); 11.65 ± 0.69 with BLM melanoma cells (48 h); 13.85 ± 1.18 in the test on BLM melanoma cells (72 h); 34.67 ± 4.92 in the test with A2058 melanoma cells (24 h); 24.60 ± 11.45 with A2058 melanoma cells (48 h); 18.67 ± 8.56 with A2058 melanoma cells (72 h). The G2/M with BLM melanoma cells (24 h) is 63.25 ± 0.45; in the test with BLM melanoma cells (48 h) it was 54.95 ± 0.45; in the test on BLM melanoma cells (72 h), 29.25 ± 0.04; in the test on A2058 melanoma cells (24 h), 52.23 ± 7.03; with A2058 melanoma cells (48 h), 59.73 ± 12.23; with A2058 melanoma cells (72 h) it was 60.37 ± 4.42. The S in the test on BLM melanoma cells (24 h) turned out to be 9.19 ± 0.28; with BLM melanoma cells (48 h), 16.35 ± 0.20; with BLM melanoma cells (72 h), 32.60 ± 2.69; in the test with A2058 melanoma cells (24 h), 11.79 ± 1.51; in the test with A2058 melanoma cells (48 h), 8.12 ± 1.15; in the test on A2058 melanoma cells (72 h), 8.85 ± 2.70. The subG0 with BLM melanoma cells (24 h) was determined as 8.22 ± 1.62; in the test with BLM melanoma cells (48 h), 17.05 ± 0.45; in the test with BLM melanoma cells (72 h), 24.30 ± 3.84; with A2058 melanoma cells (24 h) it was 1.30 ± 1.11; in the test on A2058 melanoma cells (48 h) it was 7.54 ± 3.73; with A2058 melanoma cells (72 h) it was 12.12 ± 5.84.
